Measurements published in patent publication US9006221B2, “Method of modulating ship activity” (H. Lee Moffitt Cancer Center and Reserach Institute, Inc., priority 2008, dated 2015).

Biological target: T1, SHIP1 (Mus musculus, UniProt Q9ES52)
T1 construct: The asterisk in lanes 1 and 3 indicates the ˜145 kD full-length SHIP protein; His tag (C); made in house; host or cells: E. coli Rosetta-Gami 2 (DE3) pLys
T1 sequence (Q9ES52 1-1191): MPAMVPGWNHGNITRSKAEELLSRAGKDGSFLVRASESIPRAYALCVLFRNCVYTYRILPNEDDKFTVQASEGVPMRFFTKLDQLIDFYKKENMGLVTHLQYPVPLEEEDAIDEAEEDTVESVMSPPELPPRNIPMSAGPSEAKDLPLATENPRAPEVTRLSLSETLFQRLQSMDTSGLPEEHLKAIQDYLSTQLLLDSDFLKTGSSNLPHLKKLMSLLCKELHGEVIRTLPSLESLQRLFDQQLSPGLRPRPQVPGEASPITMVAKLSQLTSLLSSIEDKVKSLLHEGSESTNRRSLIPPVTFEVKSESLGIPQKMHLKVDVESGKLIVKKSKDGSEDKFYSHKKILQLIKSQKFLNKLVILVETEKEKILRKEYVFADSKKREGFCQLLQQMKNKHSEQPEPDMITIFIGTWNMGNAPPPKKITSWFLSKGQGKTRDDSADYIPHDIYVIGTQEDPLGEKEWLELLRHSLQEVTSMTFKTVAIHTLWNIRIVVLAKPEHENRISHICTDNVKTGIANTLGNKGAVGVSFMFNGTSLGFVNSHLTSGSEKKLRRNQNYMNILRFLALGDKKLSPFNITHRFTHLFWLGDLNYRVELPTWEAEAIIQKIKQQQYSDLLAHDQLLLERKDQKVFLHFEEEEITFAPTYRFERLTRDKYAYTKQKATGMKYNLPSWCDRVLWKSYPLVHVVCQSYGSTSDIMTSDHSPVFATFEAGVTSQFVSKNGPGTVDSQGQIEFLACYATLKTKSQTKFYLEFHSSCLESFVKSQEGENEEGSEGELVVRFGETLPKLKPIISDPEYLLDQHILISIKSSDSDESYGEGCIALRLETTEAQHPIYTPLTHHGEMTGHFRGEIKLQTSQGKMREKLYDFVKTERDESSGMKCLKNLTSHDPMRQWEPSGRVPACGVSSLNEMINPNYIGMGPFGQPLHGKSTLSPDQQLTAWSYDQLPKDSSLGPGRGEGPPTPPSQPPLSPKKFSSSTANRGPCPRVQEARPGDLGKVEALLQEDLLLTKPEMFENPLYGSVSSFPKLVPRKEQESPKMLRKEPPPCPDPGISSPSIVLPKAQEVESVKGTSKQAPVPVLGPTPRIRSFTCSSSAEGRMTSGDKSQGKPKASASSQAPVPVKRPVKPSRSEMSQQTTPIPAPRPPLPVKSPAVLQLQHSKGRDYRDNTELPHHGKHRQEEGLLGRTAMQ
Experiment: Fluorescence polarization (FP) assay of SHIP1 enzymatic activity
Assay type: biochemical
Conditions: for SHIP inhibitory activity in FP assay: confirmatory FP assay of screening hits
Text: SHIP is detectable in this expression system as a ˜145 kD protein (FIG. 1a, lane 1). Because of an in-frame Histidine (His) tag on the COOH terminus of SHIP, it can then be purified from E. coli lysates by FPLC over a Ni-containing resin. (FIG. 1a, lane 3). Purified SHIP was routinely obtained in sufficient quantities, using this E. coli expression system and FPLC purification, to conduct high-throughput screening (HTS) of chemical libraries for compounds that inhibit SHIP activity. However, prior to screening, a fluorescence polarization (FP) assay that detects SHIP activity in either a 96- or […] format, seen in FIG. 1b, screen was established. SHIP generates PI(3,4)P2 from its PI(3,4,5)P3 substrate. In the FP assay enzymatic generation of PI(3,4)P2 by SHIP reduces polarized fluorescence (mP) because the fluorescent PI(3,4)P2 “probe” is displaced from a detector protein that binds specifically to PI(3,4)P2. The FP assay is highly specific for SHIP activity in these lysates. No significant 5′-inositol phosphatase activity was detected in E. coli lysates harboring an ‘empty’ pet24b expression vector insert when FPLC fractions where SHIP typically elutes with the imidazole step gradient are analyzed in the FP assay (FIG. 1c).
After preparing purified SHIP and establishing the FP assay, two different chemical libraries, comprising a total of ˜2100 different chemical compounds, were screened. Seventeen compounds capable of inhibiting SHIP activity at μM concentrations were identified in this screen. The compounds were verified for SHIP activity inhibition by repeating the FP assay with the compounds obtained from their respective wells in the replicates of the masterplates for these libraries FIGS. 2-6).
A fluorescence polarization (FP) assay to detect and quantify SHIP2 activity has been previously described [Drees B E, et al., Comb Chem High Throughput Screen (2003) 6(4):321-330], but no assay has been described for the detection of SHIP1. A fluorescence polarization (FP) assay was developed to detect the activity of recombinant SHIP1 (see FIGS. 15a and b) and the FP assay was utilized as a rapid screen to detect compounds in chemical libraries that have inhibitory activity against SHIP1. This screen identified 3α-aminocholestane as a potent inhibitor of SHIP1 enzymatic activity (FIG. 15c). […] This high degree of selectivity could be important, since loss of PTEN function promotes malignancy in parenchymal and hematopoietic tissues. [Yuan T L & Cantley L C Oncogene (2008) 27(41):5497-5510; Zhang J, et al., Nature (2006) 441(7092):518-522; Yilmaz O H, et al., Nature (2006) 441(7092):475-482]
Assay of SHIP1 enzymatic activity: A fluorescent polarization (FP) assay that detects the 5′-inositol phosphatase activity of SHIP1 was developed based on a previously established protocol [Drees B E, et al., Comb Chem High Throughput Screen (2003) 6(4):321-330] and was obtained from Echelon Biosciences (Salt Lake City, USA). Modifications of the protocol included the application of SHIP1 in the assay and an increase in the concentration of MgCl2 to […] to maximize the activity of SHIP1 in this assay. Each enzymatic reaction was performed in a 96 well working plate and added in the following order and concentration: Recombinant SHIP1 (0.1 μg) in PBS+20 mM MgCl2, 100 μM of each individual compound from the NCI Diversity Set and then PI(3,4,5)P3 substrate diluted 1:10 in H2O. The enzymatic reaction was incubated for 30 min at room temperature. The detector, reaction mixture and probe were then combined according to the SHIP2 protocol. Malachite Green Phosphatase Assay Kit was obtained from Echelon Biosciences (Salt Lake City, USA). Assays for SHIP2 were performed according to the manufacturer's protocol. The concentration of SHIP1 and SHIP2 per reaction mixture was […]. PTEN was used at the concentration recommended by the manufacturer.

SMILES | SHIP inhibitory activity in FP assay | SHIP inhibitory activity in FP assay (listed as NSC 13480) | concentration with detectable inhibitory activity against SHIP1 (0.1 μg of recombinant SHIP1, FP assay) [µM] | inhibition of SHIP1 activity (at 100 μM in the FP assay) | SHIP inhibitory activity in FP assay (listed as NSC 23922)
OC(c1cc(-c2ccccc2)nc2c1ccc1ccccc12)C1CCCCN1 (stereo not drawn) [NSC13480, (2-phenylbenzo[h]quinolin-4-yl)-piperidin-2-ylmethanol] | inhibit both SHIP1 and SHIP2 enzymatic activity | SHIP inhibitory activity |  |  | 
CC(C)CCC[C@@H](C)[C@H]1CC[C@H]2[C@@H]3CC[C@H]4C[C@H](N)CC[C@]4(C)[C@H]3CC[C@]12C [NSC23922, (3R,5S,8R,9S,10S,13R,14S,17R)-10,13-dimethyl-17-[(2R)-6-methylheptan-2-yl]-2,3,4,5,6,7,8,9,11,12,14,15,16,17-tetradecahydro-1H-cyclopenta[a]phenanthren-3-amine] | inhibit both SHIP1 and SHIP2 enzymatic activity |  | 2 | inhibits SHIP1 activity | SHIP inhibitory activity
